Source: ChEMBL document CHEMBL1201862, “PubChem BioAssay data set” (2004)
Active and inactive are the calls of the source.

Tests used:
[1] = target: Phospholipase A2 (Homo sapiens, UniProt P04054); type: functional;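 further: confirmatory dose-response counterscreen on phospholipase A2, testing hits that came from an ultra-high-throughput screen for ATG4B inhibitors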
[2] = target: T1, Protein RecA (Mycobacterium tuberculosis, UniProt P9WHJ3); assay: Fluorescence Cell-Free Homogeneous Dose Retest to Identify Inhibitors of RecA-Intein Splicing Activity. [Related pubchem assays (depositor defined):AID2097, AID2223, AID489010, AID492950]; type: functional
T1 sequence (P9WHJ3 whole entry): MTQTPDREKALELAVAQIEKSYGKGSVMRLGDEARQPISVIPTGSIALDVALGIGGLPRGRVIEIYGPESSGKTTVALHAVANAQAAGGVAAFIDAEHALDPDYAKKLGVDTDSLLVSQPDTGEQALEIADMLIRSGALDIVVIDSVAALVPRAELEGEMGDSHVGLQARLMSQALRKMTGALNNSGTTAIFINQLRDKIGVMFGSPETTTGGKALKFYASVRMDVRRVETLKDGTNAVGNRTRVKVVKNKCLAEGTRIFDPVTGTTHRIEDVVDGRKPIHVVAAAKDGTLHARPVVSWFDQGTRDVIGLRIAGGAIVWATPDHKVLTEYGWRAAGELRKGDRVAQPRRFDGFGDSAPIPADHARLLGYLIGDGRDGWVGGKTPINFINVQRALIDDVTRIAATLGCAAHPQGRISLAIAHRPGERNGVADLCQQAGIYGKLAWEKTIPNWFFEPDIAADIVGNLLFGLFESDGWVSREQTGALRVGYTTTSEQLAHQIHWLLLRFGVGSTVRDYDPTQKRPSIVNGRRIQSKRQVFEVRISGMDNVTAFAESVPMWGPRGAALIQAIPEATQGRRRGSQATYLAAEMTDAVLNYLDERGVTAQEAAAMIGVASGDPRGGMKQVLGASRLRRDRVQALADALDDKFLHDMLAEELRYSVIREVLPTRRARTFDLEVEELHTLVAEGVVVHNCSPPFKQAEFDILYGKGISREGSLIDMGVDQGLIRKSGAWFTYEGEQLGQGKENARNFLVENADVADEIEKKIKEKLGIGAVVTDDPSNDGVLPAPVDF

[3] = target: T2, Cysteine protease ATG4B (Homo sapiens, UniProt Q9Y4P1); type: functional;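 further: Fluorescence-based dose-response confirmation assay measuring inhibition of ATG4B activity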
T2 sequence (Q9Y4P1 whole entry): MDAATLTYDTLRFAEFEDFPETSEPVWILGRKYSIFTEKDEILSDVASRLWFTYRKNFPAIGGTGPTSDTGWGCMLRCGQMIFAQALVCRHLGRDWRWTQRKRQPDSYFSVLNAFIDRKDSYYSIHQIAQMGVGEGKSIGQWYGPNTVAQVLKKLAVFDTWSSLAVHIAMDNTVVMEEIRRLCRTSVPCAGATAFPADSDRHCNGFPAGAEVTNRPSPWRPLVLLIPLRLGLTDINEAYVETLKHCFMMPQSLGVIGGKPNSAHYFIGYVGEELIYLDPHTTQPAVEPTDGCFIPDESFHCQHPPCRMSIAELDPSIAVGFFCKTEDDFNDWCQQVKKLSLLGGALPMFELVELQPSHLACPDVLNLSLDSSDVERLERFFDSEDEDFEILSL

[4] = target: T3, Replicative DNA helicase DnaB (Mycobacterium tuberculosis, UniProt P9WMR3); assay: DnaB intein splicing inhibitors, dose response, biochemical, cell-free fluorescence (AID 449749); type: functional
T3 sequence (P9WMR3 whole entry): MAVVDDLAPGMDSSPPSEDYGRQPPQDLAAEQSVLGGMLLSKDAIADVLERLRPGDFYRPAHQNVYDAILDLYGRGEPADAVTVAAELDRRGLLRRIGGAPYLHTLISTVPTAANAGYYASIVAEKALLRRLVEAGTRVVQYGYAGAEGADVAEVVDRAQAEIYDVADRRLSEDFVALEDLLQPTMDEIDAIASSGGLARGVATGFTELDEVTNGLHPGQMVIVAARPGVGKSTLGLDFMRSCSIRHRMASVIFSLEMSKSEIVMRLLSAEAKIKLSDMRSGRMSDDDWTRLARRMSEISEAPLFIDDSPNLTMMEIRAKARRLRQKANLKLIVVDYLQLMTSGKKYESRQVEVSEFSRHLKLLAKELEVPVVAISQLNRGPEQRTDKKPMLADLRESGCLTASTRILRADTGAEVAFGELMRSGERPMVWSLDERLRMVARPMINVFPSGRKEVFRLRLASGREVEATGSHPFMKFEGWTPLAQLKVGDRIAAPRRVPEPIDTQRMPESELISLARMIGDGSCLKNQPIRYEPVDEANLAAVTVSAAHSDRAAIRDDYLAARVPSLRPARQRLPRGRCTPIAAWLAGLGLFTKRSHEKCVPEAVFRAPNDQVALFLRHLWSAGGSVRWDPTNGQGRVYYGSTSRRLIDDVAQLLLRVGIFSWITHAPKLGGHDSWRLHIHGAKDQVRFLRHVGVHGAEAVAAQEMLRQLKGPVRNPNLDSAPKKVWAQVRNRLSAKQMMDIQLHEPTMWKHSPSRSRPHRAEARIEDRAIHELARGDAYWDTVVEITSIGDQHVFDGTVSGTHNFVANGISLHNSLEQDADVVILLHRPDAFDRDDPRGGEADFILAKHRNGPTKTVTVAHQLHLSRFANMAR

[5] = target: Cytochrome P450 2C9 (Homo sapiens, UniProt P11712)
[6] = target: Cytochrome P450 2D6 (Homo sapiens, UniProt P10635);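 further: CYP2D6 member of a cytochrome P450 panel assay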
[7] = tested on: Streptococcus; assay: GAS UMAA2166 growth inhibition – luminescence, BacTiterGlo, counter-screen for streptokinase expression inhibitor project, dose response (AID 1915); type: functional, organism-based;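 further: potency for reduction of bacterial viability or growth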
[8] = target: T4, Aminopeptidase N (Plasmodium falciparum FcB1/Columbia, UniProt O96935); assay: malaria alanyl aminopeptidase activity blockers – biochemical, fluorogenic H-Leu-NHMec substrate, 1536-well (AID 1445); set-up: species or system Plasmodium falciparum 3D7, 3D7
T4 sequence (O96935 whole entry): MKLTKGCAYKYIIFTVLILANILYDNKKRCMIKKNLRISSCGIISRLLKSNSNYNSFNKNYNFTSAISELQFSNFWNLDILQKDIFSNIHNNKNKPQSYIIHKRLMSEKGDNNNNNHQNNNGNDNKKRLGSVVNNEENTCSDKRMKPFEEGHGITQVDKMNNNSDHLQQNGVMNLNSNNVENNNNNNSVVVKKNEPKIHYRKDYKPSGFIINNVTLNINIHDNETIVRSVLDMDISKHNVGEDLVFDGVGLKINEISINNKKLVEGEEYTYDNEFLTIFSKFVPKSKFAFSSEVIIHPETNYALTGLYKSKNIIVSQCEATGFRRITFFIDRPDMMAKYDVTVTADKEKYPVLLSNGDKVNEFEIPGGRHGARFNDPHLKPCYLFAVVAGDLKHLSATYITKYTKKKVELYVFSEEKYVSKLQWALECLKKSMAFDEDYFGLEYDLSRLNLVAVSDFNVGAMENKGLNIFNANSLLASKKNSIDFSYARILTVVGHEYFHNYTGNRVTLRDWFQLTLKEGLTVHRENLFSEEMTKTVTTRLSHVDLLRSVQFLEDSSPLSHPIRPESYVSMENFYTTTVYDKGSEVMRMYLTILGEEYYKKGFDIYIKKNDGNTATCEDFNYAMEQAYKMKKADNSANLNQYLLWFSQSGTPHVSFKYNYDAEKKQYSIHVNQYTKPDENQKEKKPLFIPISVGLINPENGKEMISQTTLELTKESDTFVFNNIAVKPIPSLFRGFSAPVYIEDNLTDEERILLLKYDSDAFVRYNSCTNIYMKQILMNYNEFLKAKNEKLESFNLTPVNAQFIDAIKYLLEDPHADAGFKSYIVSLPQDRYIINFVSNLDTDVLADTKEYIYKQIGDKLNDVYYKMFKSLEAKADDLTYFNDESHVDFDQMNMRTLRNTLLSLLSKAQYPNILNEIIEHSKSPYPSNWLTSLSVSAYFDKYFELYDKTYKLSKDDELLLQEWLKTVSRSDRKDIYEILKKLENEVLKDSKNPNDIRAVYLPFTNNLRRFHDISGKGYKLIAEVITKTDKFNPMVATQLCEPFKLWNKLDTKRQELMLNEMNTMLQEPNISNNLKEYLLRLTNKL

[9] = tested on: Streptococcus sp. 'group A'; assay: Streptococcus pyogenes SK(-)GAS viability under kanamycin – luminescence, BacTiterGlo, confirmation, counter-screen for streptokinase expression inhibitor project, dose response (AID 1900); type: functional, organism-based
[10] = target: T5, Streptokinase A (Streptococcus pyogenes serotype M1, UniProt P10520); assay: viability-normalized secreted streptokinase activity reduction – plasminogen activation absorbance, OD405, dose response (AID 1914); type: functional, Streptococcus pyogenes M1 GAS;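 further: secreted streptokinase activity via plasminogen activation per viability signal from cell pellet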
T5 sequence (P10520 whole entry): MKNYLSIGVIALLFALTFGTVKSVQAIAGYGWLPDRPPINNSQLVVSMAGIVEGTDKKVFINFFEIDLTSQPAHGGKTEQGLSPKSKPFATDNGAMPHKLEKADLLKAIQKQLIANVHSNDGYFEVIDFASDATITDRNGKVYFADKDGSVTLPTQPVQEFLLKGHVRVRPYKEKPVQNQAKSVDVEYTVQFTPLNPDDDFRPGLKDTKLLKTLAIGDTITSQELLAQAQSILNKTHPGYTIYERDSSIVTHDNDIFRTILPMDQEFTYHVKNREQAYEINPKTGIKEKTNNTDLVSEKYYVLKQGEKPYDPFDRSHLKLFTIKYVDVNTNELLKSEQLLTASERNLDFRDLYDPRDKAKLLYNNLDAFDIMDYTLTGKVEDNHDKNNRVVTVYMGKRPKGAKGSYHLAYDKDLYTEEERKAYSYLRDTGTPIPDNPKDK

[11] = reduction of Shn3 3'UTR-driven luciferase in osteoblasts – cell-based, Clone20 osteoblasts, firefly luciferase, cherry-picked, dose response (AID 624132); type: functional;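 further: firefly luciferase luminescence from reporter carrying the Shn3 3'UTR in osteoblasts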
[12] = non-specific 3'UTR reporter inhibition in Clone20-Shn3RL – cell-based, Renilla luciferase, cherry-picked, counter-screen for Shn3 inhibitor project, dose response (AID 624133); type: functional
[13] = loss of viability in HepG2 cells – cell-based, CellTiter-Glo, cherry-picked, cytotoxicity control for Shn3 inhibitor project, dose response (AID 624134); type: functional
[14] = target: Glyceraldehyde-3-phosphate dehydrogenase (Homo sapiens, UniProt P04406)
[15] = HEK-293T cell viability reduction – luminescence, B-cell screen hits, cytotoxicity control for BCR NF-kB inhibitor project, dose response (AID 489021); type: functional, cell-based;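 further: HEK-293T cells carrying an NF-kB luciferase reporter; cells exposed to compound for about 14 hours before viability readout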
[16] = target: Paired box protein Pax-8 (Homo sapiens, UniProt Q06710); assay: PAX8 transcriptional activity inhibition in RMG-I – RMG-I cells, luciferase, cherry-pick, dose response (AID 687027); type: functional, cell-based;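 further: luciferase reporter driven by Pax8 target thyroperoxidase promoter measured by SteadyGlo luminescence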
[17] = viability of HCT116 lacking mutant beta-catenin – cell-based, human colon tumor, dose response (AID 1045); type: functional;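 further: HCT116 colon tumor cells with beta catenin knocked out; cells exposed to compound for 60 hours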
[18] = viability of PTEN-deleted HCT116 cells – cell-based, HCT116 PTEN knockout, dose response (AID 1047); type: functional;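 further: HCT116 colon tumor cells with PTEN knocked out; cells exposed to compound for 60 hours before readout; potency for loss of cell viability measured by luminescence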
[19] = microbe, parasite or virus in culture; type: functional; conditions: Mycobacterium tuberculosis

Sequence of Phospholipase A2 (P04054 whole entry): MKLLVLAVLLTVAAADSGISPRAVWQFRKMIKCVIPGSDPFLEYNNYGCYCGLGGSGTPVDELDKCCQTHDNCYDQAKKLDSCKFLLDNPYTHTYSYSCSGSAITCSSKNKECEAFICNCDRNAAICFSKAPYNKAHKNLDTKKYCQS
Sequence of Cytochrome P450 2D6 (P10635 whole entry): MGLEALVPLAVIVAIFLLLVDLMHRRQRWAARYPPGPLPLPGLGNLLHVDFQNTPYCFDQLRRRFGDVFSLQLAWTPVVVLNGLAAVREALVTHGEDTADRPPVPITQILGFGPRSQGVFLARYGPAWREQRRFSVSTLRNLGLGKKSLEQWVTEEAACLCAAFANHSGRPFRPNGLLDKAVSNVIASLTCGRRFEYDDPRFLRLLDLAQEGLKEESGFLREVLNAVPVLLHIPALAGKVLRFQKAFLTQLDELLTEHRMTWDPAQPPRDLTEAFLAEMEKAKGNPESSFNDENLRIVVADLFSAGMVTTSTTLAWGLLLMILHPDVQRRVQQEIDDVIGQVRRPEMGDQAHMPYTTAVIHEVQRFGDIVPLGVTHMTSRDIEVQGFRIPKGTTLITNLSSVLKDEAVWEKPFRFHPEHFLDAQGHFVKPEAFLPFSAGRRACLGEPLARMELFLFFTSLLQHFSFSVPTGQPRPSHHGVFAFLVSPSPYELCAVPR
Sequence of Cytochrome P450 2C9 (P11712 whole entry): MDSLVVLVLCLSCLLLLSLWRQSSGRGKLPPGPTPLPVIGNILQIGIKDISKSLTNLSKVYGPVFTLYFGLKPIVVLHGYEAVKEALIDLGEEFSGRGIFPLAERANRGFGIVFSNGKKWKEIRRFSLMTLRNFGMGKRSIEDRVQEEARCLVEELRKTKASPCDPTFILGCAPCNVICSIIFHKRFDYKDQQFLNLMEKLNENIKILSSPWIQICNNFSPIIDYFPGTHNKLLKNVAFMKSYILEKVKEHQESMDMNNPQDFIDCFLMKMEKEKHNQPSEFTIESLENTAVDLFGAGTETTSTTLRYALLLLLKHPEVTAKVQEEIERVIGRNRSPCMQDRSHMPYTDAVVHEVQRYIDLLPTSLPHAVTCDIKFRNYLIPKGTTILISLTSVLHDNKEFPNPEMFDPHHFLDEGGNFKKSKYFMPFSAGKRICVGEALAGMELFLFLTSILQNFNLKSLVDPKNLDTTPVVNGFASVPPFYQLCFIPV
Sequence of Glyceraldehyde-3-phosphate dehydrogenase (P04406 whole entry): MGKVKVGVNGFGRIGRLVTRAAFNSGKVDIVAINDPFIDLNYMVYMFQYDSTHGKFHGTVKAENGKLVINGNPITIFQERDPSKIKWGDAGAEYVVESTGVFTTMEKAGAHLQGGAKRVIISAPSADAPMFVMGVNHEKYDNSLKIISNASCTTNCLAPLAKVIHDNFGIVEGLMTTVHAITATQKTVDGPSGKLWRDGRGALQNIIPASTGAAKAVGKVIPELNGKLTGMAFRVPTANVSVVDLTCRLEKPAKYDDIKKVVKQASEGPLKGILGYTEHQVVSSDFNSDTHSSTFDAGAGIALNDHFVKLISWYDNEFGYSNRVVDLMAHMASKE
Sequence of Paired box protein Pax-8 (Q06710 whole entry): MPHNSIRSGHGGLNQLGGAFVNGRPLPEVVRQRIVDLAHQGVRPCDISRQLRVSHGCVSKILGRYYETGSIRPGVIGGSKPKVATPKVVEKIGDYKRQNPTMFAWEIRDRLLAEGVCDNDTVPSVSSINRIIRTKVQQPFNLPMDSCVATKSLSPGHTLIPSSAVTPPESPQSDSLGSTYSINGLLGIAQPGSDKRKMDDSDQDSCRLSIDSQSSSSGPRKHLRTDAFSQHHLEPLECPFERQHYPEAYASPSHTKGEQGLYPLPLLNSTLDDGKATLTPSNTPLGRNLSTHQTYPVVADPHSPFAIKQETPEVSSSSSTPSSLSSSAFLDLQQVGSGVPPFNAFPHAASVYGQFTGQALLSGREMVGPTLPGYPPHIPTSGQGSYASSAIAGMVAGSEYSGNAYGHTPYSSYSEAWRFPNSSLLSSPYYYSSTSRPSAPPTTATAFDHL

## Cc1ccc(-c2[nH]nc3c2C(c2ccc(OC(=O)N4CCOCC4)cc2)C(C#N)=C(N)O3)cc1 (stereo not given)
[1]
  IC50: 11.7 µM (active)
[2]
  EC50: 1.18 µM (active)
[3]
  IC50: 15.8 µM (active)
[4]
  AC50: 4.61 µM (active)

## CC(C)(C)c1ccc(C(=O)C2CCCN(C(=O)c3ccccn3)C2)cc1 (stereo not given)
[1]
  IC50: 11.5 µM (active)
[3]
  IC50: 15.1 µM (active)

## O=C(c1ccc(-n2c(SCc3cccc(F)c3)nc3ccccc3c2=O)cc1)N1CCOCC1
[1]
  IC50: 8.49 µM (active)
[3]
  IC50: 10.1 µM (active)

## Cc1cccc(NC(S)=NNC(=O)c2csc3c2CCCC3)c1
[1]
  IC50: 13.2 µM (active)
[3]
  IC50: 11.2 µM (active)
[5]
  AC50: inconclusive
[6]
  AC50: 25.1 µM (inconclusive)

## NS(=O)(=O)c1ccc(N2N=C(c3ccccc3)CC2c2ccc(F)cc2)cc1 (stereo not given)
[7]
  EC50: 18.7 µM (active)
[8]
  IC50: 62 µM (active)
[9]
  EC50: 6.96 µM (active)
[10]
  EC50: 55.2 µM (active)

## CCCc1nc2sc3c(c2c(=O)n1NC(=O)c1ccco1)CC(C)(C)OC3
[8]
  IC50: 36.1 µM (active)

## Cc1ccc(NC(=O)CSc2nn(-c3ccccc3)c(=S)s2)cc1S(=O)(=O)N(C)C
[11]
  AC50: 5.82 µM (active)
[12]
  AC50: 55.6 µM (active)
[13]
  AC50: 45.6 µM (active)

## Cc1ccccc1C1C2=C(O)c3ccccc3C2=Nc2nn(-c3ccccc3)c(O)c21 (stereo not given)
[8]
  IC50: 40.4 µM (active)

## O=C(O)Cc1ccc(/C(=N\O)c2cccs2)s1
[14]
  IC50: > 100 µM (not active)

## O=C(COc1ccccc1/C=C\c1nc(O)c([N+](=O)[O-])c(O)n1)Nc1ccccc1
[8]
  IC50: 49 µM (active)

## NC(c1csc(NC(=O)Nc2cccc(C(F)(F)F)c2)n1)C1CCCCC1 (stereo not given)
[11]
  AC50: 4.81 µM (active)
[12]
  AC50: 7.42 µM (active)
[13]
  AC50: 11.3 µM (active)

## O=C(N/N=C/c1cccnc1)c1cc(-c2ccccc2OCc2ccccc2)[nH]n1
[8]
  IC50: 31.2 µM (active)
[15]
  IC50: 53.1 µM (inactive)

## COC(=O)N/N=C/c1cn(CCCOc2ccc(C)cc2)c2ccccc12
[1]
  IC50: 7.39 µM (active)
[3]
  IC50: 10.3 µM (active)

## C=C1C(=O)[C@@]23[C@H](O)C[C@@H]4C(C)(C)CC[C@H](O)[C@@]4(C)[C@@H]2CC[C@@H]1[C@H]3O [KAMEBANIN]
[11]
  AC50: 1.29 µM (active)
[12]
  AC50: 4.85 µM (active)
[16]
  AC50: 1.16 µM (active)
[17]
  EC50: 1.02 µM (active)
[18]
  EC50: 1.17 µM (active)
[13]
  AC50: 26.3 µM (active)
[19]
  CC50: 5.73 µM (active)

## O=C1OC[C@H](Cc2ccc3c(c2)OCO3)/C1=C\c1ccc2c(c1)OCO2 [SAVININ]
[11]
  AC50: 2.66 µM (active)
[12]
  AC50: 23.1 µM (active)
[13]
  AC50: 59.8 µM (active)
